Experimental data taken from PubChem BioAssay (NCI).
“And” between values parts separate entries of the source, which are not always exact repeats. Identical values can stand only once.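 96-well plates; 48 h exposure; 5 concentrations. Endpoints by linear interpolation between flanking doses. Not reached: highest tested concentration assigned. Abbreviation: GI50, concentration required for 50% inhibition of growth. Definition used: TGI = concentration required for complete inhibition of growth.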

Key:
Assay in all cases: DTP human tumour cell line panel, 48 h
[1] = test system: MDA-MB-435
[2] = test system: SF-268 CNS
[3] = test system: SNB-75 CNS
[4] = test system: A498 renal
[5] = test system: OVCAR-8 ovarian
[6] = test system: PC-3 prostate
[7] = test system: HCT-15 colon
[8] = test system: MCF7 breast
[9] = test system: SW-620 colon
[10] = test system: U251 CNS

Compound	TGI [1]	TGI [2]	TGI [3]	TGI [4]	TGI [5]	TGI [6]	TGI [7]	TGI [8]	TGI [9]	TGI [10]	GI50 [1]	GI50 [2]	GI50 [3]	GI50 [4]	GI50 [5]	GI50 [6]	GI50 [7]	GI50 [8]	GI50 [9]	GI50 [10]
O=C(O)C1C(C(=O)O)C23CC2(C(=O)O)C2(C(=O)O)CCC3=C3CCCC312 (configuration not stated)	49.8 µM	22.5 µM	93.5 µM	62.6 µM	64.4 µM	31.2 µM	> 100 µM	63.3 µM	> 100 µM	23.8 µM	–	–	–	–	–	–	–	–	–	–
Cc1ccc2c(c1)C(C)Cc1c(Cl)ncnc1N2C (configuration not stated)	5.63 µM	13.8 µM	22.5 µM	4.78 µM	23.8 µM	72.1 µM	14.1 µM	11.7 µM	13.3 µM	67.9 µM	2.23 µM	2.5 µM	0.394 µM	2.08 µM	3.77 µM	3.62 µM	3.08 µM	2.96 µM	3.2 µM	4.43 µM
O=C1C=CC[C@H](/C=C/c2ccccc2)O1	14.8 µM	16.6 µM	4.69 µM	6.91 µM	> 100 µM	27.5 µM	22.2 µM	> 37.8 µM	16 µM	13.1 µM	1.81 µM	2.44 µM	0.394 µM	1.45 µM	6.03 µM	3.37 µM	3.14 µM	1.65 µM	1.39 µM	1.88 µM
COc1ccccc1N1CCN(CCc2c[nH]c3cc4c(cc23)OCO4)CC1	52.3 µM	> 100 µM	> 100 µM	83 µM	> 100 µM	> 100 µM	> 100 µM	> 100 µM	> 100 µM	> 100 µM	14 µM	35.6 µM	25 µM	16.6 µM	42 µM	20 µM	29.6 µM	33.3 µM	22 µM	32.2 µM
CNCCNc1c2c(c(NCCNC)c3[nH]ccc13)C(=O)c1ccccc1C2=O	1.47 µM	0.876 µM	8.86 µM	4.27 µM	0.393 µM	0.309 µM	0.761 µM	1.19 µM	0.804 µM	0.615 µM	0.255 µM	0.222 µM	3.5 µM	2.14 µM	0.0578 µM	0.0593 µM	0.115 µM	0.154 µM	0.299 µM	0.0587 µM
COc1cc2c(cc1OCCCCCOc1ccc(-n3c(C)nc4ccccc4c3=O)cc1)N=C[C@@H]1CCCN1C2=O	0.39 µM	–	3.43 µM	0.543 µM	3 µM	2.89 µM	3.9 µM	1.3 µM	2.8 µM	0.759 µM	0.184 µM	0.376 µM	0.408 µM	0.214 µM	0.363 µM	0.34 µM	1.13 µM	0.271 µM	0.323 µM	0.231 µM
COc1ccc(C(=O)/C=C/c2ccc3c(c2)OCO3)c(OCc2ccccc2)c1	> 100 µM	> 100 µM	> 100 µM	> 100 µM	> 100 µM	> 100 µM	> 100 µM	> 100 µM	> 100 µM	> 100 µM	–	–	–	–	–	–	–	–	–	–
Nc1nc(N)c2c(n1)NC(c1ccc(F)cc1)C1CCc3ccccc3C1=N2 (configuration not stated)	11.6 µM	23.7 µM	23.8 µM	9.08 µM	27 µM	9.31 µM	16.5 µM	11 µM	17.4 µM	16.9 µM	2.84 µM	8.64 µM	11.3 µM	2.87 µM	8.07 µM	2.03 µM	3.99 µM	2.67 µM	4.87 µM	4.29 µM
COC(=O)CCC1CCC(c2cc(F)ccc2F)(S(=O)(=O)c2ccc(Cl)cc2)CC1 (configuration not stated)	> 100 µM	> 100 µM	> 100 µM	> 100 µM	> 100 µM	> 100 µM	> 100 µM	> 100 µM	> 100 µM	> 100 µM	88.5 µM	> 100 µM	> 100 µM	40.4 µM	> 100 µM	30.7 µM	> 100 µM	70.2 µM	> 100 µM	> 100 µM
CCN(CC)CCn1c2ccccc2c(=O)c2c(O)ccc(O)c21	33.4 µM	52.7 µM	49.5 µM	> 100 µM	48.2 µM	> 56.1 µM	> 58.5 µM	40.1 µM	31.5 µM	74.1 µM	–	–	–	–	–	–	–	–	–	–
Cc1cc(Cc2cc(C)cc(C(C)(C)C)c2O)c(O)c(Cc2cc(C)cc(C(C)(C)C)c2O)c1	8.57 µM	9.92 µM	14.2 µM	7.2 µM	15.1 µM	9.12 µM	11.3 µM	7.93 µM	16.7 µM	10.3 µM	–	–	–	–	–	–	–	–	–	–
CC1(O)CC(c2nc(-c3ccc4ccc(-c5ccccc5)nc4c3)c3c(N)nccn23)C1 (configuration not stated)	27.3 µM and > 10 µM	55.3 µM and > 10 µM	43.2 µM and > 10 µM	12.8 µM and > 10 µM	80 µM and > 10 µM	> 100 µM	> 79.6 µM	> 43.3 µM	34.8 µM and > 10 µM	36.3 µM and > 10 µM	4.53 µM and 3.69 µM	12.9 µM and > 10 µM	4.62 µM and 5.57 µM	3.32 µM and 4.55 µM	9.34 µM and > 10 µM	12.7 µM and > 10 µM	4.52 µM and 3.68 µM	0.122 µM and 0.332 µM	4.87 µM and 2.36 µM	13.4 µM and > 10 µM
CCOC(=O)/C(=C\c1ccc(C#N)cc1)C(C)=O	98.3 µM	87.2 µM	45.5 µM	30 µM	96.9 µM	39.1 µM	40 µM	61.9 µM	> 100 µM	32.7 µM	–	–	–	–	–	–	–	–	–	–
N#CC1=C(N)Oc2c(sc3c(Br)cccc23)C1c1ccc(Br)cc1 (configuration not stated)	0.46 µM	10 µM	3.09 µM	9.56 µM	3.09 µM	6.32 µM	11.4 µM	12.4 µM	15.1 µM	2.05 µM	0.109 µM	1.15 µM	0.407 µM	0.633 µM	0.588 µM	0.516 µM	0.601 µM	0.382 µM	1.55 µM	0.544 µM
COc1cc(NC(=O)CSc2nc3ccc(C)cc3c(=O)n2Cc2ccccc2)cc(OC)c1OC	> 100 µM	> 100 µM	4.33 µM	5.55 µM	> 100 µM	> 100 µM	> 100 µM	> 100 µM	> 100 µM	24 µM	9.55 µM	6.91 µM	1.82 µM	1.01 µM	4.42 µM	6.88 µM	> 100 µM	9.98 µM	> 100 µM	3.93 µM
NC1=C(c2nc(-c3ccccc3)cs2)C(c2ccc(Br)cc2)c2c(c3ccccc3oc2=O)O1 (configuration not stated)	> 150 µg/mL	> 150 µg/mL	36.7 µg/mL	> 150 µg/mL	> 150 µg/mL	> 150 µg/mL	> 150 µg/mL	> 150 µg/mL	> 150 µg/mL	> 150 µg/mL	> 150 µg/mL	89.7 µg/mL	2.39 µg/mL	33.9 µg/mL	112 µg/mL	> 150 µg/mL	70.1 µg/mL	> 150 µg/mL	73.9 µg/mL	48.2 µg/mL
Oc1ccccc1CNCC12CC3CC(CC(C3)C1)C2	43.7 µM	> 100 µM	> 100 µM	31.5 µM	> 100 µM	> 100 µM	91.1 µM	34.7 µM	84.8 µM	49.3 µM	18.6 µM	46.8 µM	34.9 µM	10.4 µM	79.9 µM	26 µM	24.8 µM	16.8 µM	24.3 µM	20.7 µM
COc1cccc2c1C(=O)c1c(O)c3c(c(O)c1C2=O)C[C@@](O)(C(=O)CO)C[C@@H]3O[C@H]1C[C@H](N)[C@@H](O)[C@H](C)O1	1.29 µM	2.08 µM	0.634 µM	1.06 µM	19.5 µM	5.32 µM	50 µM	14 µM	7.61 µM	16.4 µM	0.465 µM	0.196 µM	0.084 µM	0.134 µM	0.256 µM	0.551 µM	2.99 µM	0.0247 µM	–	–
Cc1cc2[nH]c(=O)c3c4ccccc4cn3c2cc1C	19.8 µM	32.4 µM	30.4 µM	39.6 µM	25.9 µM	25.4 µM	22 µM	> 100 µM	33.2 µM	14.2 µM	6 µM	15.3 µM	15.5 µM	21.5 µM	7.07 µM	12 µM	6.18 µM	11.8 µM	3.83 µM	4.03 µM
Cc1cc(=O)[nH]c2cc3c(c4c(n3Cc3ccc(Cl)cc3Cl)CC(C)(C)CC4=O)c(O)c12	> 100 µM	> 100 µM	59.8 µM	> 100 µM	> 100 µM	> 100 µM	> 100 µM	> 100 µM	> 100 µM	> 100 µM	57.4 µM	76.1 µM	24.6 µM	> 100 µM	> 100 µM	> 100 µM	> 100 µM	> 100 µM	> 100 µM	62.6 µM
